ChEMBL document CHEMBL1201862, “PubChem BioAssay data set” (2004)
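1) Cells in 96-well plates. 2) Compound, 48 h, 5 concentrations. 3) Linear interpolation between surrounding doses. 4) Unreached endpoint = highest concentration. GI50 is the concentration that inhibits growth by half.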 Activity calls are given as the source filed them. Rule as the data show it: active = GI50 up to about 1.1 µM and inactive = higher.

Experiments:
Test in all cases: NCI tumour cell line growth inhibition, 48 h
ACHN = system: ACHN
EKVX = system: EKVX
HCT-15 = system: HCT-15
HL-60 = system: HL-60
HOP-92 = system: HOP-92
KM12 = system: KM12
NCI-H226 = system: NCI-H226
NCI-H23 = system: NCI-H23
NCI-H460 = system: NCI-H460
SF-295 = system: SF-295
SK-MEL-2 = system: SK-MEL-2
SK-OV-3 = system: SK-OV-3
SN12C = system: SN12C
U-251 = system: U-251
UACC-62 = system: UACC-62
HT-29 = system: HT-29
RPMI-8226 = system: RPMI-8226
RXF 393 = system: RXF 393

| SMILES | GI50 (ACHN) | GI50 (EKVX) | GI50 (HCT-15) [µM] | GI50 (HL-60) | GI50 (HOP-92) | GI50 (KM12) | GI50 (NCI-H226) | GI50 (NCI-H23) | GI50 (NCI-H460) | GI50 (SF-295) | GI50 (SK-MEL-2) | GI50 (SK-OV-3) | GI50 (SN12C) | GI50 (U-251) | GI50 (UACC-62) | GI50 (HT-29) | GI50 (RPMI-8226) | GI50 (RXF 393) |
| --- | --- | --- | --- | --- | --- | --- | --- | --- | --- | --- | --- | --- | --- | --- | --- | --- | --- | --- |
| CCn1c2c(c3ccccc31)C(c1ccccc1)CC1C(=O)N(c3ccccc3)C(=O)C21 (stereo unspecified) | 57.5 µM (inactive) | 42.8 µM (inactive) | > 100 | 68.9 µM (inactive) | 26.2 µM (inactive) | > 100 µM (inactive) | 31.8 µM (inactive) | > 100 µM (inactive) | 54.1 µM (inactive) | > 100 µM (inactive) | 61 µM (inactive) | 24.7 µM (inactive) | 67.1 µM (inactive) | > 10 µM (inactive) | 38.9 µM (inactive) |  |  |  |
| CC(C)(C)C1CCC2c3c([nH]c4ccccc34)C3C(=O)N(c4ccccc4)C(=O)C3C2C1 (stereo unspecified) | 4.94 µM (inactive) | 14.9 µM (inactive) | 22.8 | 12.8 µM (inactive) |  | 21.4 µM (inactive) | 5.82 µM (inactive) | 12 µM (inactive) | 3.7 µM (inactive) | 4.86 µM (inactive) |  | 2.15 µM (inactive) | 5.3 µM (inactive) | 3.1 µM (inactive) | 20.9 µM (inactive) | 8.93 µM (inactive) | 7.78 µM (inactive) | 3.81 µM (inactive) |
| O=C(N/C(=C\c1c(O)ccc2ccccc12)c1nc2ccccc2[nH]1)c1ccccc1 | > 100 µM (inactive) | > 100 µM (inactive) | > 100 |  | > 100 µM (inactive) | > 100 µM (inactive) |  | 87.1 µM (inactive) | > 100 µM (inactive) |  | > 100 µM (inactive) | 86.3 µM (inactive) | 92.7 µM (inactive) | 79.3 µM (inactive) | > 100 µM (inactive) | > 100 µM (inactive) | > 100 µM (inactive) | 22.1 µM (inactive) |
| CC1(C)Cc2cc(C(=O)O)c3c(c2C1=O)COCC3 | > 100 µM (inactive) | > 100 µM (inactive) | > 100 | > 100 µM (inactive) |  | > 100 µM (inactive) | > 100 µM (inactive) | > 100 µM (inactive) | > 100 µM (inactive) | > 100 µM (inactive) | > 100 µM (inactive) | > 100 µM (inactive) | > 100 µM (inactive) | > 100 µM (inactive) | > 100 µM (inactive) | > 100 µM (inactive) | > 100 µM (inactive) | > 100 µM (inactive) |
| CCOC(=O)C1C(=O)CC(=O)C2CCCCC21 (stereo unspecified) | > 100 µM (inactive) | > 100 µM (inactive) | > 100 | > 100 µM (inactive) | > 100 µM (inactive) | > 100 µM (inactive) |  | > 100 µM (inactive) | > 100 µM (inactive) | > 100 µM (inactive) | > 100 µM (inactive) | > 100 µM (inactive) | > 100 µM (inactive) | > 100 µM (inactive) | > 100 µM (inactive) |  | > 100 µM (inactive) | > 100 µM (inactive) |
| CC(C)(C)c1cc(CCCCCCCC2(CCCCCCCc3cc(C(C)(C)C)cc(C(C)(C)C)c3)OC(COCCOCCCCCC#N)C(COCCOCCCCCC#N)O2)cc(C(C)(C)C)c1 (stereo unspecified) | > 100 µM (inactive) | > 100 µM (inactive) | > 100 | > 100 µM (inactive) | > 100 µM (inactive) | > 100 µM (inactive) | > 100 µM (inactive) | > 100 µM (inactive) | > 100 µM (inactive) | > 100 µM (inactive) | > 100 µM (inactive) | > 100 µM (inactive) | > 100 µM (inactive) | > 100 µM (inactive) | > 100 µM (inactive) | > 100 µM (inactive) |  | 3.78 µM (inactive) |
